Experimental data as given in ChEMBL document CHEMBL5126532, “Synthetic approaches and structural diversity of triazolylbutanols derived from voriconazole in the antifungal drug development” (Eur J Med Chem, 2022).
Converted amounts (≈) assume the structure as drawn.

Experiments:
Type in all cases: functional
[1] = test system: Cryptococcus neoformans; experiment: Antifungal activity against Cryptococcus neoformans; settings: Cryptococcus neoformans; read-out: MIC
[2] = test system: Candida; experiment: Antifungal activity against Candida spp.
[3] = test system: Candida parapsilosis; experiment: Antifungal activity against Candida parapsilosis; settings: Lodderomyces parapsilosis
[4] = test system: Candida albicans; experiment: Antifungal activity against Candida albicans assessed as inhibition of fungal growth incubated for 20 hrs
[5] = test system: Aspergillus sp.; experiment: Antifungal activity against Aspergillus sp; settings: Aspergillus sp.; read-out: MIC
[6] = test system: Candida albicans; experiment: Antifungal activity against Candida albicans
[7] = test system: Candida albicans; experiment: Antifungal activity against Candida albicans TIMM1756 assessed as inhibition of fungal growth incubated for 20 hrs
[8] = test system: Candida albicans; experiment: Antifungal activity against Candida albicans TIMM1850 assessed as inhibition of fungal growth incubated for 20 hrs
[9] = test system: Cryptococcus neoformans; experiment: Antifungal activity against Cryptococcus neoformans TIMM1740 assessed as inhibition of fungal growth incubated for 68 hrs
[10] = test system: Cryptococcus neoformans; experiment: Antifungal activity against Cryptococcus neoformans TIMM1855 assessed as inhibition of fungal growth incubated for 68 hrs
[11] = test system: Aspergillus fumigatus; experiment: Antifungal activity against Aspergillus fumigatus TIMM1728 assessed as inhibition of fungal growth incubated for 20 hrs
[12] = test system: Aspergillus fumigatus; experiment: Antifungal activity against Aspergillus fumigatus IFO6344 assessed as inhibition of fungal growth incubated for 20 hrs
[13] = test system: Candida albicans; experiment: In vivo antifungal activity against Candida albicans infected in CDF1 mouse treated po 4 hrs after injection twice daily for 2 days measured on day 10; settings: 48 h, time 2 day
[14] = test system: Aspergillus fumigatus; experiment: In vivo antifungal activity against Aspergillus fumigatus infected in CDF1 mouse treated po 4 hrs after injection twice daily for 2 days measured on day 10; settings: 48 h, time 2 day
[15] = test system: Candida albicans; experiment: Antifungal activity against Candida albicans SANK 51486 by 96-well microplate method
[16] = test system: Cryptococcus neoformans; experiment: Antifungal activity against Cryptococcus neoformans TIMM 1855 by 96-well microplate method
[17] = test system: Aspergillus fumigatus; experiment: Antifungal activity against Aspergillus fumigatus SANK 10569 by 96-well microplate method
[18] = test system: Aspergillus flavus; experiment: Antifungal activity against Aspergillus flavus SANK 18497 by 96-well microplate method
[19] = test system: Aspergillus fumigatus; experiment: Antifungal activity against Aspergillus fumigatus

C[C@H](n1nnc(CCN2CCN(c3cccc(C(F)(F)F)c3)CC2)n1)[C@](O)(Cn1cncn1)c1ccc(F)cc1F
MIC [1]: 0.25 µg/mL (≈ 0.433 µM)
MIC [2]: 0.25 µg/mL (≈ 0.433 µM)

C[C@@H](N1CCN(c2ccc(-n3cnn(Cc4cccc(C(F)(F)F)c4)c3=O)cn2)CC1)[C@](O)(Cn1cncn1)c1ccc(F)cc1F
MIC [3]: 4 µg/mL (≈ 6.1 µM)

CC(C)CCC(=O)OC[n+]1cnn(C[C@](O)(c2ccc(F)cc2F)[C@@H](C)N2CCN(c3ccc(-n4cnnn4)cc3)C2=O)c1.[I-]
MIC [4]: 0.016 µg/mL

C[C@@H](N1Cc2nc(-c3ccc(F)cc3)sc2C1=O)[C@](O)(Cn1cncn1)c1ccc(F)cc1F
MIC [1]: 0.0312 µg/mL (≈ 0.0643 µM)
MIC [2]: 0.0156 µg/mL (≈ 0.0321 µM)
MIC [5]: 4 µg/mL (≈ 8.24 µM)

C[C@@H](N1CCN(c2ccc(-n3cnnn3)cc2)C1=O)[C@](O)(Cn1c[n+](COC(=O)OC2COCOC2)cn1)c1ccc(F)cc1F.[I-]
MIC [4]: 0.016 µg/mL

C[C@@H](OCc1cc(-c2cc(F)cc(F)c2)no1)[C@](O)(Cn1cncn1)c1ccc(F)cc1F
MIC80 [6]: 0.0313 µg/mL (≈ 0.0677 µM)

C[C@@H](OCc1cc(-c2ccc(Cl)cc2)no1)[C@](O)(Cn1cncn1)c1ccc(F)cc1F
MIC80 [6]: 0.0313 µg/mL (≈ 0.0679 µM)

C[C@@H](N1CCN(c2ccc(-n3cnn(Cc4cc(C(F)(F)F)cc(C(F)(F)F)c4)c3=O)nc2)CC1)[C@](O)(Cn1cncn1)c1ccc(F)cc1F
MIC [3]: 4 µg/mL (≈ 5.53 µM)

C[C@@H](OCc1cc(-c2cc(F)c(F)c(F)c2F)no1)[C@](O)(Cn1cncn1)c1ccc(F)cc1F
MIC80 [6]: 0.0313 µg/mL (≈ 0.0628 µM)

CC(C)COC(=O)OC[n+]1cnn(C[C@](O)(c2ccc(F)cc2F)[C@@H](C)N2CCN(c3ccc(-n4cnnn4)cc3)C2=O)c1.[I-]
MIC [4]: 0.016 µg/mL

C[C@@H](N1CCN(c2ccc(-n3cccn3)cc2)C1=O)[C@](O)(Cn1cncn1)c1ccc(F)cc1F
MIC [7]: ≤ 1 ng/mL
MIC [8]: ≤ 1 ng/mL
MIC [9]: 0.016 µg/mL (≈ 0.0334 µM)
MIC [10]: 0.016 µg/mL (≈ 0.0334 µM)
MIC [11]: 0.25 µg/mL (≈ 0.521 µM)
MIC [12]: 0.25 µg/mL (≈ 0.521 µM)
ED50 [13]: 2 mg/kg
ED50 [14]: 4.4 mg/kg

C[C@@H](S[C@H]1CO[C@H](/C=C/C=C/c2ccc(C#N)cc2F)OC1)[C@](O)(Cn1cncn1)c1ccc(F)cc1
MIC [15]: ≤ 8 ng/mL
MIC [16]: ≤ 8 ng/mL
MIC [17]: ≤ 8 ng/mL
MIC [18]: ≤ 8 ng/mL

Cc1cccc(-c2cc(CO[C@H](C)[C@](O)(Cn3cncn3)c3ccc(F)cc3F)on2)c1
MIC80 [6]: 0.0313 µg/mL (≈ 0.0711 µM)

C[C@@H](N1CCN(c2ccc(-n3cnnn3)cc2)C1=O)[C@](O)(Cn1c[n+](COC(=O)C(C)(C)C)cn1)c1ccc(F)cc1F.[I-]
MIC [4]: 0.016 µg/mL

C[C@@H](OCc1cc(-c2c(F)cc(F)cc2F)no1)[C@](O)(Cn1cncn1)c1ccc(F)cc1F
MIC80 [6]: 0.0313 µg/mL (≈ 0.0652 µM)

CC(C)n1ncn(-c2ccc(N3CCN([C@H](C)[C@](O)(Cn4cncn4)c4ccc(F)cc4F)CC3)cn2)c1=O
MIC [3]: 0.25 µg/mL (≈ 0.463 µM)
MIC [19]: 4 µg/mL (≈ 7.41 µM)
MIC [1]: 0.5 µg/mL (≈ 0.927 µM)
MIC [2]: 0.25 µg/mL (≈ 0.463 µM)

C[C@@H](OCc1cc(-c2ccc(F)cc2F)no1)[C@](O)(Cn1cncn1)c1ccc(F)cc1F
MIC80 [6]: 0.0313 µg/mL (≈ 0.0677 µM)

C[C@@H](N1CCN(c2ccc(-n3cnn(Cc4cc(C(F)(F)F)cc(C(F)(F)F)c4)c3=O)cn2)CC1)[C@](O)(Cn1cncn1)c1ccc(F)cc1F
MIC [3]: 4 µg/mL (≈ 5.53 µM)

C[C@@H](OCc1cc(-c2cc(F)ccc2F)no1)[C@](O)(Cn1cncn1)c1ccc(F)cc1F
MIC80 [6]: 0.0313 µg/mL (≈ 0.0677 µM)

C[C@@H](OCc1cc(-c2c(F)cccc2F)no1)[C@](O)(Cn1cncn1)c1ccc(F)cc1F
MIC80 [6]: 0.0313 µg/mL (≈ 0.0677 µM)

C[C@@H](OCc1cc(-c2ccccc2Cl)no1)[C@](O)(Cn1cncn1)c1ccc(F)cc1F
MIC80 [6]: 0.0313 µg/mL (≈ 0.0679 µM)

C[C@@H](OCc1cc(-c2cccc(F)c2F)no1)[C@](O)(Cn1cncn1)c1ccc(F)cc1F
MIC80 [6]: 0.0313 µg/mL (≈ 0.0677 µM)

C[C@@H](OCc1cc(-c2ccc(F)c(F)c2)no1)[C@](O)(Cn1cncn1)c1ccc(F)cc1F
MIC80 [6]: 0.0313 µg/mL (≈ 0.0677 µM)

CC(C)C(=O)OC[n+]1cnn(C[C@](O)(c2ccc(F)cc2F)[C@@H](C)N2CCN(c3ccc(-n4cnnn4)cc3)C2=O)c1.[I-]
MIC [4]: 0.016 µg/mL

C[C@@H](N1CCN(c2ccc(-n3cnn(Cc4cc(C(F)(F)F)cc(C(F)(F)F)c4C(F)(F)F)c3=O)nc2)CC1)[C@](O)(Cn1cncn1)c1ccc(F)cc1F
MIC [3]: 4 µg/mL (≈ 5.05 µM)

C[C@@H](OCc1cc(-c2ccc(Cl)c(F)c2)no1)[C@](O)(Cn1cncn1)c1ccc(F)cc1F
MIC80 [6]: 0.0313 µg/mL (≈ 0.0654 µM)

CC(C)Cn1ncn(-c2ccc(N3CCN([C@H](C)[C@](O)(Cn4cncn4)c4ccc(F)cc4F)CC3)nc2)c1=O
MIC [3]: 0.25 µg/mL (≈ 0.452 µM)
MIC [19]: 4 µg/mL (≈ 7.23 µM)
MIC [1]: 0.25 µg/mL (≈ 0.452 µM)
MIC [2]: 0.03 µg/mL (≈ 0.0542 µM)

C[C@@H](N1CC(O)N(c2ccc(-n3cnnn3)cc2)C1=O)[C@](O)(Cn1cncn1)c1ccc(F)cc1F (stereo not given in full)
MIC [1]: > 16 µg/mL
MIC [2]: ≥ 4 µg/mL
MIC [5]: > 64 µg/mL

C[C@@H](OCc1cc(-c2ccc(OC(F)(F)F)cc2)no1)[C@](O)(Cn1cncn1)c1ccc(F)cc1F
MIC80 [6]: 0.0313 µg/mL (≈ 0.0613 µM)
